Assay results from US20060019907A1, “Guggulsterone: an inhibitor of nuclear factor - kappaB and IkappaBalpha kinase activation and uses thereof” (Research Development Foundation, priority 2004, published 2006).

Experiments:
KBM-5 cells = test: Cytotoxicity (MTT) assay with TNF and chemotherapeutic drugs; type: cell-based, human; settings: 50 μM guggulsterone, 72 hours
Experimental: Cytotoxicity Assay: Cytotoxicity was assayed by the modified tetrazolium salt 3-(4-5-dimethylthiozol-2-yl)2-5-diphenyl-tetrazolium bromide (MTT) assay (Bharti et al., 2003). Briefly, cells (5000 cells/well) were incubated in the presence or absence of the indicated test sample in a final volume of 0.1 ml for 72 hours at 37° C. Thereafter, 0.025 ml of MTT solution (5 mg/ml in PBS) was added to each well. After a 2 hour incubation at 37° C., 0.1 ml of the extraction buffer (20% SDS, 50% dimethylformamide) was added. After an overnight incubation at 37° C., the optical densities at 570 nm were measured using a 96-well multiscanner autoreader (Dynatech MR5000), with the extraction buffer as blank. The percent cytotoxicity was determined as follows: (1−(A570 of test sample)/(A570 of control sample)×100%.

Akt = test: TNF-induced Akt activation, Western blot with phospho-specific anti-Akt; type: cell-based; settings: pretreatment with guggulsterone, TNF (1 nM)
From the text: Guggulsterone Suppressed TNF-induced Activation of Akt: The results till now indicate that guggulsterone inhibits TNF-induced NF-κB activation through inhibition of IKK activation. It is possible that this inhibition is due to inhibition of an upstream kinase. Previous studies have reported that Akt can activate IKK. Thus it is possible that guggulsterone suppresses TNF-induced Akt activation. To determine the effect of guggulsterone on the activation of Akt induced by TNF, the cells were treated with guggulsterone, and then exposed to TNF (1 nM) for different times. Thereafter whole-cell extracts were prepared and Western blot analysis using phospho-specific anti-Akt antibody was performed.

RAW 264.7 cells = test: Osteoclast differentiation assay, RANKL-induced; type: cell-based, mouse; settings: RANKL 5 nM
Experimental: Osteoclast differentiation assay: […] cells were cultured in 24-well dishes at a density of 1×10^4 cells per well and were allowed to adhere overnight. Medium was then replaced and the cells were treated with 5 nM (˜100 ng/ml) RANKL. At different days, cultures were stained for TRAP expression using an acid phosphatase kit, and the total number of TRAP-positive multinucleated osteoclasts (>3 nuclei) per well were counted.
Osteoclast differentiation assay. RAW 234.7 cells were cultured in 24-well dishes at a density of 1×10^4 cells per well and were allowed to adhere overnight. Medium was then replaced and the cells were treated with 5 nM (100 ng/ml) RANKL. At day 5, cultures were stained for TRAP expression as described (Shevde et al., 2000) using an acid phosphatase kit, and the total number of TRAP-positive multinucleated osteoclasts (3 nuclei) per well were counted.

COX2 promoter = test: COX-2 promoter-dependent reporter luciferase gene expression; type: cell-based, human; settings: 0.1 nM TNF 24 hours
Experimental: COX-2 Promoter-dependent Reporter Luciferase Gene Expression: COX-2 promoter activity was examined as described elsewhere (Shishodia et al., 2003). To further determine the effect of guggulsterone on COX-2 promoter, […] cells were seeded at a concentration of 1.5×10^5 cells per well in six-well plates. After overnight culture, the cells in each well were transfected with 2 μg DNA consisting of COX-2 promoter-luciferase reporter plasmid, along with 6 μl of LIPOFECTAMINETM 2000 (Life Technologies, Inc.) according to the manufacturer's protocol. The COX-2 promoter (-375 to +59), amplified from human genomic DNA by using the primers [NT] (sense) (SEQ ID NO:3) and [NT] (antisense) (SEQ ID NO:4), was provided by Dr. Xiao-Chun Xu (M.D. Anderson Cancer Center). After a 6 hour exposure to the transfection mixture, the cells were incubated in medium containing guggulsterone for 12 hours. The cells were exposed to TNF (0.1 nM) for 24 hours and then harvested. Luciferase activity is measured by using the Promega luciferase assay system according to the manufacturer's protocol and detected by using […] 2010 (Analytical Luminescence Laboratory, San Diego, Calif.).

U937 cells = test: Cell cycle, flow cytometric analysis; type: cell-based, human; settings: 10 μM, propidium iodide flow cytometry
Experimental: Flow cytometric analysis. To determine the effect of guggulsterone on the cell cycle, U937 cells were treated for different times, washed, and fixed with 70% ethanol. After an overnight incubation at −20° C., cells were washed with PBS, and then suspended in staining buffer (Propidium iodide, 10 μg/ml; Tween-20, 0.5%; RNase, 0.1% in PBS). The cells were analyzed using a FACS Vantage flow cytometer that uses CellQuest acquisition and analysis programs (Becton Dickinson, San Jose, Calif.). Gating was set to exclude cell debris, cell doublets, and cell clumps.

STAT3 = test: IL-6-inducible STAT3 phosphorylation in RPMI 8226 cells, Western blot; type: cell-based, human
Experimental: Western blot. For detection of STAT proteins, whole-cell extracts were prepared by lysing the guggulsterone-treated cells in lysis buffer (20 mM Tris, pH 7.4, 250 mM NaCl, 2 mM EDTA, pH 8.0, 0.1% Triton −X100, 0.01 mg/ml aprotinin, 0.005 mg/ml leupeptin, 0.4 mM PMSF, and 4 mM NaVO4). Lysates were then spun at 14,000 rpm for 10 min to remove insoluble material, and resolved on a 7.5% gel. After electrophoresis, the proteins were electrotransferred to a nitrocellulose membrane, blocked with 5% nonfat milk, and probed with anti-STAT antibodies (1:1000) overnight at 4° C. The blot was washed, exposed to HRP-conjugated secondary antibodies for 1 h, and finally examined by chemiluminescence (ECL, Amersham Pharmacia Biotech. Arlington Heights, Ill.).

IκBα = test: RANKL-induced IκBα phosphorylation and degradation, Western blot; type: cell-based, mouse; settings: RAW 264.7
Experimental: Western blot analysis. To determine the levels of protein expression in the cytoplasm or nucleus, extracts were prepared (Majumder and Aggarwal, 2001) and fractionated by SDS-polyacrylamide gel electrophoresis (PAGE). After electrophoresis, the proteins were electrotransferred to nitrocellulose membranes, blotted with each antibody, and detected by ECL regent (Amersham, Piscataway, N.J.). The bands obtained were quantitated using NIH imaging software (NIH, Bethesda, Md.).

[1] = 50 μM, 4 h pre-incubation, 10 nM RANKL

For `CC=C1C(=O)C[C@H]2[C@@H]3CCC4=CC(=O)CC[C@]4(C)[C@H]3CC[C@]12C` [guggulsterone, 4,17(20)-pregnadiene-3,16-dione], the “cytotoxic effects of TNF, paclitaxel and doxorubicin in combination with guggulsterone” value (KBM-5 cells) was “enhanced the cytotoxic effects of TNF, paclitaxel and doxorubicin”, the “TNF-induced Akt activation” value (Akt) was “completely suppressed the activation” and the “number of RANKL-induced osteoclasts” value (RAW 264.7 cells; 5 days, TRAP) was “the number of osteoclasts decreased with increasing concentration of GS”. The “RANKL-induced osteoclastogenesis, GS added 24 h after RANKL” value (RAW 264.7 cells; GS 5 μM, 5 days) was “inhibited osteoclastogenesis even when the cells were exposed 24 h after the RANKL treatment”, the “RANKL-induced osteoclastogenesis, GS added 3 days after RANKL” value (RAW 264.7 cells; GS 5 μM, 5 days) was “the inhibitory effect decreased significantly” and the “RANKL-induced osteoclastogenesis (Example 1)” value (RAW 264.7 cells; guggulsterone 5 μM, TRAP staining) was “inhibits RANKL-induced NF-κB activation and osteoclastogenesis”. For the same compound, the “TNF-induced COX2 promoter activity” value (COX2 promoter) was “abolished the COX2 promoter activity in a dose-dependent manner”, the cell cycle arrest (U937 cells) was “arrested the cell cycle in S-phase” and the “exposure time sufficient to completely suppress IL-6-induced STAT3 phosphorylation” value (STAT3; 25 μM) was 4 h. For the same compound, the “IL-6-induced STAT3 phosphorylation” value (STAT3; 25 μM, IL-6 10 ng/ml 10 min) was “blocked by guggulsterone in a time-dependent manner”, the “STAT3 phosphorylation by guggulsterone alone” value (STAT3; data not shown) was “had no effect on STAT3 phosphorylation” and the “phosphorylation of IκBα by GS alone” value (IκBα) was “did not result in phosphorylation of IκBα”. The “RANKL-induced IκBα degradation” value (IκBα; [1]) was “suppressed RANKL-induced IκBα degradation”, the “RANKL-induced phosphorylation of IκBα” value (IκBα; [1]) was “eliminated the RANKL-induced phosphorylation” and the “expression of IκBα (IκBα to β-actin ratio)” value (IκBα; GS treatment) was “down-regulates the expression of IκBα”.
